For orientation: IC50 means the midpoint of a concentration-inhibition curve. Usually EC50 stands for the concentration giving half of the maximal effect. By AC50 is commonly meant the concentration at which the activity in the assay is half-maximal. A word on the CC50: it is the concentration that lowers cell viability or growth by half.

These results are taken from ChEMBL document CHEMBL1201862, “PubChem BioAssay data set” (2004).

The nature of test [1]: viability inhibitors of stage V gametocytes – luminescence, dose response (AID 1117278).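 Also: gametocytes exposed to compound for 24 hours.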 The test is classed as functional, cell-based.
The nature of test [2]: viability loss in human Jurkat cells – cell-based, luminescence, cytotoxicity control for P. falciparum gametocyte viability project, dose response (AID 1117277).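 Also: potency reflects loss of cellular ATP meaning fewer viable cells.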 The test is classed as functional.
Test [3] in a line: viability of PTEN-deleted HCT116 cells – cell-based, HCT116 PTEN knockout, dose response (AID 1047).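 Also: HCT116 colon tumor cells with PTEN knocked out; cells exposed to compound for 60 hours before readout; potency for loss of cell viability measured by luminescence.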 The test is classed as functional.
The target of test [4] is T1, Calpain-2 catalytic subunit (Sus scrofa, UniProt P43367).
T1 sequence (P43367 whole entry): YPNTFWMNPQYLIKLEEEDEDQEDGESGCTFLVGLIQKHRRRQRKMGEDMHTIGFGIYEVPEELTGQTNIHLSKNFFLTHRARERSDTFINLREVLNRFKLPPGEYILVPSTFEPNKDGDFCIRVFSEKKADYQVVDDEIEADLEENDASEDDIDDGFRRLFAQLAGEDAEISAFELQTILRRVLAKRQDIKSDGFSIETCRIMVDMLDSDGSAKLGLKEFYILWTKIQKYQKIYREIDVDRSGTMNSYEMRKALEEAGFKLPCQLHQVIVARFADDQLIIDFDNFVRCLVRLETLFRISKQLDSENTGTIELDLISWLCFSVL
In words: m-calpain protease blockers, concentration series – biochemical, fluorogenic peptide substrate, dose response (AID 1420). It is filed as functional.

The nature of test [5]: viability of HCT116 lacking mutant beta-catenin – cell-based, human colon tumor, dose response (AID 1045).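 Also: HCT116 colon tumor cells with beta catenin knocked out; cells exposed to compound for 60 hours.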 The test is classed as functional.
For test [6], the target named is T2, Mannose-6-phosphate isomerase (Homo sapiens, UniProt P34949).
T2 sequence (P34949 whole entry): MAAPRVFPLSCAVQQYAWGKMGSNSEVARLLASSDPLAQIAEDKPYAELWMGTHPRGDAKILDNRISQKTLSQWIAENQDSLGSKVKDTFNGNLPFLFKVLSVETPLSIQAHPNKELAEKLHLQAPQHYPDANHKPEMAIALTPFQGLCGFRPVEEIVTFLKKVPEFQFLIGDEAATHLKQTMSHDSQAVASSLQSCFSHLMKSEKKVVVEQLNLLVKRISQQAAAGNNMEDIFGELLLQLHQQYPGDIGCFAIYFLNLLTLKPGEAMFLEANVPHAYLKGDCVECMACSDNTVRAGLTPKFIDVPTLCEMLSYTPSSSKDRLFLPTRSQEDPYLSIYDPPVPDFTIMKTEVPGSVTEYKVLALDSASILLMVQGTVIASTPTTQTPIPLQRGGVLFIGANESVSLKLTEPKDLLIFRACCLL
The test can be described thus: MPI inhibition at elevated mannose 6-phosphate – biochemical, fluorescence intensity, high mannose 6-phosphate, primary screen (AID 1220).

The next test concerns the target T3, Hexokinase HKDC1 (Homo sapiens, UniProt Q2TB90).
T3 sequence (Q2TB90 whole entry): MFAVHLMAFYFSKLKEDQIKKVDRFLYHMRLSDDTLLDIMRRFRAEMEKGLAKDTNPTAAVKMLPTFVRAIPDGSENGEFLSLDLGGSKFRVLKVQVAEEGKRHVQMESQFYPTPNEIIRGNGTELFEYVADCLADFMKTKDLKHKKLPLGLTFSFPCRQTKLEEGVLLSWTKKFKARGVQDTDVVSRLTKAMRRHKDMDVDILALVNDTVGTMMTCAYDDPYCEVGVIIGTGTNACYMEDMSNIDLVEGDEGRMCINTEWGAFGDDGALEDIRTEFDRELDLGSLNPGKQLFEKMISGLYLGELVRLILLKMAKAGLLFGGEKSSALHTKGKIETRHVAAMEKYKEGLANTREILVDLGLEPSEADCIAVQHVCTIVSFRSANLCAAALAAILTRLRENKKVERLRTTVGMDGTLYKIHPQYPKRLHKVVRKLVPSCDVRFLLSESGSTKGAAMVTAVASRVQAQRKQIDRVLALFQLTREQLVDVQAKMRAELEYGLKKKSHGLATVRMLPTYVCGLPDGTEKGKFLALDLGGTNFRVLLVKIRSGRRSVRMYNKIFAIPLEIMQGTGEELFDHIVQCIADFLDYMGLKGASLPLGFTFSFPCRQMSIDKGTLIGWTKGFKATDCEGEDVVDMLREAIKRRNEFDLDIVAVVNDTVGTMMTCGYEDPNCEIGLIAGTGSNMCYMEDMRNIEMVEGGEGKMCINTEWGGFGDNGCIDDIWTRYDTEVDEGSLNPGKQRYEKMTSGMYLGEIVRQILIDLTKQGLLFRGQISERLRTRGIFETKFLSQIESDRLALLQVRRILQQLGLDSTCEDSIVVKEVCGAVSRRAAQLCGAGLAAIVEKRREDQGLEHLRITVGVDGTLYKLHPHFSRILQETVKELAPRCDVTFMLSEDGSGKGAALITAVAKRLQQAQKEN
The test can be described thus: inhibition of HKDC1 glucose phosphorylation – biochemical, W721R variant, dose response (AID 504729). It is filed as functional.

For a further test, the system named is HEK293. The test can be described thus: EBV LMP1 TES2 canonical NF-kB signalling blockers – cell-based, HEK293, luciferase, cherry-pick, dose response (AID 588343). The test is classed as functional. Particulars: Homo sapiens.
The target in test [7] is DNA (cytosine-5)-methyltransferase 1 (Homo sapiens, UniProt P26358). In words: inhibition of DNA methylation by DNMT1 – biochemical, fluorescent molecular beacon, confirmation (AID 602386). The test is classed as functional.
Test [8] addresses Hepatocyte nuclear factor 4-alpha (Homo sapiens, UniProt P41235). It is filed as functional, cell-based.
A short description of test [9]: IC50 of Artemis nuclease activity blockers – biochemical, fluorescence intensity, dose response (AID 720701).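 Also: Artemis endonuclease enzyme.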 The test is classed as functional.
Test [10] is described as follows: luciferase reporter signal suppression in cells – H4 neuroglioma cells, luminescence, dose response (AID 1990). It is filed as functional, cell-based.
Test [11] can be described thus: luciferase reporter signal reduction – luminescence, H4-C neuroglioblastoma cells, dose response (AID 2458).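 Also: H4 neuroglioblastoma cells stably carrying a luciferase reporter gene fusion.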 The test is classed as functional, cell-based.
The target in test [12] is T4, RNA-binding protein pos-1 (Caenorhabditis elegans, UniProt G5EF15).
T4 sequence (G5EF15 whole entry): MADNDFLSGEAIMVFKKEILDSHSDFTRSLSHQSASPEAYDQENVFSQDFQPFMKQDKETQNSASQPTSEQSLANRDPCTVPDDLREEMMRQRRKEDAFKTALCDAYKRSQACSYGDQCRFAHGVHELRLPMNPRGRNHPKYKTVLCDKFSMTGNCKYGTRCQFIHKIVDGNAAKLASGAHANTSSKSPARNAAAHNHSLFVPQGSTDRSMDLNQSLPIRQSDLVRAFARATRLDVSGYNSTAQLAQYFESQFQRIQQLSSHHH
The test can be described thus: disruptors of C. elegans POS-1 RNA interaction – biochemical, fluorescence polarization, dose response (AID 1964).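 Also: purified POS-1 fused to maltose binding protein made in E. coli; potency of compounds blocking POS-1 binding to fluorescent RNA.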

A short description of test [13]: Luminescence Cell-Based Dose Response HTS to Identify Inhibitors of 5'UTR Stem-Loop Driven Prion Protein mRNA Translation in H4 Neuroglioblastoma Cells. [Related pubchem assays: 1827 (Project Summary), 1813 (Primary HTS)]. The test is classed as functional.
In test [14] the target is T5, Zinc finger protein mex-5 (Caenorhabditis elegans, UniProt Q9XUB2).
T5 sequence (Q9XUB2 whole entry): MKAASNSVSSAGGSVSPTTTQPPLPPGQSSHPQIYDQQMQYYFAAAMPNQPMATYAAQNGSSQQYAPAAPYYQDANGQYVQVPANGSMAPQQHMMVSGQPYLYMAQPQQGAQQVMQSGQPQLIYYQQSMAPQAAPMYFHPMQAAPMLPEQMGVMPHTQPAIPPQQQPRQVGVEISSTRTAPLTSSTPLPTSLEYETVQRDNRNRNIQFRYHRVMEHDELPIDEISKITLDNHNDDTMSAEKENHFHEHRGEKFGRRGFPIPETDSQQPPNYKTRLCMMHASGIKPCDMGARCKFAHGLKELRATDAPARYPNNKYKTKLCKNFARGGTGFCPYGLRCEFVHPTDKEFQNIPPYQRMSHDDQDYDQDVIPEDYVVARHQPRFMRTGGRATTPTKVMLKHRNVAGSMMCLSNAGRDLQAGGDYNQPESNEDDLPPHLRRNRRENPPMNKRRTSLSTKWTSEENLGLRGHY
The test can be described thus: potency of MEX-5 RNA-binding blockers – biochemical, C. elegans, fluorescence polarization, dose response (AID 1960). (In general: Polarisation of emitted light reports the rotation of a fluorescent probe.)

A short description of test [15]: alpha-synuclein stem-loop luciferase translation blockers – H4 neuroglioma cells, luminescence, confirmation (AID 1988). It is filed as functional, cell-based.
The nature of test [16]: alpha-synuclein stem-loop translation blockers – luminescence, H4 neuroglioblastoma cells, dose confirmation, confirmation (AID 2454).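 Also: H4 neuroglioblastoma cells carrying an alpha-synuclein 5'UTR luciferase reporter; potency for inhibition of the luciferase signal.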 It is filed as functional, cell-based.
The target in test [17] is Glucose-6-phosphate 1-dehydrogenase (Homo sapiens, UniProt P11413). The test can be described thus: inhibition of Homo sapiens G6PD, dose series – biochemical, fluorescence, selectivity assay for P. falciparum G6PD inhibitor project, dose response (AID 504792). The test is classed as functional.
The target of the next test is Protein Tat (Human immunodeficiency virus type 1 group M subtype B (isolate HXB2)(HIV-1), UniProt P04608). The test is classed as functional.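 Also: tat binding to TAR RNA read out by fluorescence polarization.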
A further test relates to Vero. The test can be described thus: Vero cell viability after compound exposure – synthesized analogs, set II, cytotoxicity control for West Nile virus antiviral project, SAR follow-up (AID 2402). The test is classed as functional. Particulars: Chlorocebus sabaeus.

Calls of active or inactive are those of the source.

Sequence of Hepatocyte nuclear factor 4-alpha (P41235 whole entry): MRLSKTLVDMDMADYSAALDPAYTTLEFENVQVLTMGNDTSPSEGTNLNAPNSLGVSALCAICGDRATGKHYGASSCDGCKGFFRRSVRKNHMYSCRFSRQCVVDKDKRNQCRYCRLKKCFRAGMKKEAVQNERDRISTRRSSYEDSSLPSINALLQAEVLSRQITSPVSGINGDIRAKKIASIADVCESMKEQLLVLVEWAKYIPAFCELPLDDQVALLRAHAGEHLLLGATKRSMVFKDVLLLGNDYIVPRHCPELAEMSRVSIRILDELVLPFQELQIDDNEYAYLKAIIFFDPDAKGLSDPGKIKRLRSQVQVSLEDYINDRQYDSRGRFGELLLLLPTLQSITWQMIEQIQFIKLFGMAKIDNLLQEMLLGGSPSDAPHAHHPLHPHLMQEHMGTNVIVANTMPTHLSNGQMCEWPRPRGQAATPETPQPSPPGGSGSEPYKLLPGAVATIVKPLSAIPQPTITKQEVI
Sequence of Protein Tat (P04608 whole entry): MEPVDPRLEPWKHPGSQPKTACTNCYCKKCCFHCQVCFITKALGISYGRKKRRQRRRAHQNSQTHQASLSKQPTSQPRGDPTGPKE
Sequence of Glucose-6-phosphate 1-dehydrogenase (P11413 whole entry): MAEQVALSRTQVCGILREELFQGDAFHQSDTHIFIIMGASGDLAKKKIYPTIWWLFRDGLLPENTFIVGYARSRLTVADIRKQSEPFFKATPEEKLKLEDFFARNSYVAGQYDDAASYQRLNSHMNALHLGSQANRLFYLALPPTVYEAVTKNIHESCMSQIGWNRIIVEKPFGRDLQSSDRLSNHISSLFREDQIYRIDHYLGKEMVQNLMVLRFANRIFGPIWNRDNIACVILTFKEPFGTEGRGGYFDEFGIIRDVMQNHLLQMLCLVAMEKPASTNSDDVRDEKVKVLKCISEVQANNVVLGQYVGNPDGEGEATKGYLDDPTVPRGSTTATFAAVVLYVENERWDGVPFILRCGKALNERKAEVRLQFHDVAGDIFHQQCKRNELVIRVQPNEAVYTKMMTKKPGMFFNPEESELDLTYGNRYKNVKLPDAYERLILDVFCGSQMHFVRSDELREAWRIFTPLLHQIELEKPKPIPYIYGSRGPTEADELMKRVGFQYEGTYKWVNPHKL
Sequence of DNA (cytosine-5)-methyltransferase 1 (P26358 whole entry): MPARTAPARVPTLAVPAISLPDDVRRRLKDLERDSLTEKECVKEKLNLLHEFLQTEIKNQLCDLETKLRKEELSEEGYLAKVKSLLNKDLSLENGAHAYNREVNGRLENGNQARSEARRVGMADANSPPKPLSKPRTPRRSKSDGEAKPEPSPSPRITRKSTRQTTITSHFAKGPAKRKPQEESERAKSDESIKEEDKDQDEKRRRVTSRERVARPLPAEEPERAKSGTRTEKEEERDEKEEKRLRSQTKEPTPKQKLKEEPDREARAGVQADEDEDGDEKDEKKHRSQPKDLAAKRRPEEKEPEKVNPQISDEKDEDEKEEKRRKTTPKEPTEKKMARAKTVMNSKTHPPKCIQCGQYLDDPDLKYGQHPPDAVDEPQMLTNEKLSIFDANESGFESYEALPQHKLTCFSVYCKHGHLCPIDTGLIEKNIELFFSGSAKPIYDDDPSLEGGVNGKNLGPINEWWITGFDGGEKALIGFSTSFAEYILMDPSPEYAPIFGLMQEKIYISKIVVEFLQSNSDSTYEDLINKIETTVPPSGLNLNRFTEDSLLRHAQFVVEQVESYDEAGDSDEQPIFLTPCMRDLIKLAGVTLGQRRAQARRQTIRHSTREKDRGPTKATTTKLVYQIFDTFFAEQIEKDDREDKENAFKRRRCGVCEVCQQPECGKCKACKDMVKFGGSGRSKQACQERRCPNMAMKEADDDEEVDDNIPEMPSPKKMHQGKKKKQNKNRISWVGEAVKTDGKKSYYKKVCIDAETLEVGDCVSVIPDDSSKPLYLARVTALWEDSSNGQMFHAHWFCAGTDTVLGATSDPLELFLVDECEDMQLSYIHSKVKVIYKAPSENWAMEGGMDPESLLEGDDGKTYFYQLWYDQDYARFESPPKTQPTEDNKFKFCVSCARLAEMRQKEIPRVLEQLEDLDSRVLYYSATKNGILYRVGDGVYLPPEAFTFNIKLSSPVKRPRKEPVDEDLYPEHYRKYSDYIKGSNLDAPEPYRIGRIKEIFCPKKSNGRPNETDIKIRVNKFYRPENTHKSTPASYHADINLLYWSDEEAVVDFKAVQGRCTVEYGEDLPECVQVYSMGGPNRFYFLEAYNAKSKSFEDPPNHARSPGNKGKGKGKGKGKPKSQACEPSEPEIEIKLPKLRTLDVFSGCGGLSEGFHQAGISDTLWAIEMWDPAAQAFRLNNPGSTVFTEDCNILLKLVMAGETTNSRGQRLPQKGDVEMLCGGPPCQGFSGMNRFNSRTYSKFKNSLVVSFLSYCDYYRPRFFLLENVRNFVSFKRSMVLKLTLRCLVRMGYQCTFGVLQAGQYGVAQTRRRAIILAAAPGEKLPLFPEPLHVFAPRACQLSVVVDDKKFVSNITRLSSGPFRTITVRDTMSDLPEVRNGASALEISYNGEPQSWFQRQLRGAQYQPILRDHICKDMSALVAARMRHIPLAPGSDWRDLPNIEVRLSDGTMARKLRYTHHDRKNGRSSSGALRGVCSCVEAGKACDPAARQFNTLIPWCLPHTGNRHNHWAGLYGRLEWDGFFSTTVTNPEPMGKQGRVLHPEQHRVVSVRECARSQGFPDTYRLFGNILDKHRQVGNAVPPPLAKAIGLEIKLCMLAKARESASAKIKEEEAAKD

On to `Nc1ccc(-c2cnc(-c3ccc(N)cc3)nc2)cc1`, for which the results for the IC50 in [1] and in [2] were > 109 µM (inactive) and > 83.3 µM (inactive), respectively.

As to `Cc1oc2c(c1C(=O)c1ccc(Cl)cc1)C(=O)C(=O)c1ccccc1-2`, the concentration giving a half-maximal response (EC50) in test [3] was 2.63 µM (active); in test [5], 2.36 µM (active). For the same molecule, the IC50 in [4] was < 400 nM (not active); in [6] it was > 50 µM (not active); at Hexokinase HKDC1 it was 8.83 µM (active); in test [7] it was 6.05 µM (active); in [8] it was 3.58 µM (active); in test [9], 1.12 µM (active). Further, in the test with HEK293, the AC50 is 11.7 µM (active).

`Cc1ccc2nc3sc(C(=O)N4CCOCC4)c(N)c3cc2c1`: the EC50 is 2.01 µM (active) in test [10]; > 12 µM (inconclusive) in test [11]; 46.8 µM (active) in test [12]; < 100 nM (active) in test [13]; > 300 µM (inconclusive) in test [14]; 2.37 µM (active) in [15]. Moreover, the 50% effective concentration (EC50) in test [16] was 927 nM (active). Besides, the IC50 in test [17] was > 80 µM (inactive).

In the case of `COc1ccc(C2CC(=O)Oc3cc(OC)ccc32)cc1` (stereo unspecified), the IC50 at Protein Tat was > 100 µM (active).

As for `OC1c2c(F)cccc2N=C2CCCN21` (stereo unspecified), the CC50 in the test on Vero is > 200 µM (active).
